Measured values from PubChem BioAssay AID2305 (GlaxoSmithKline (GSK), 2010).

System: P. falciparum 3D7 growth, pLDH absorbance
Assay: P. falciparum 3D7 growth inhibition, dose response, strain 3D7 (AID 2305)

Row | SMILES | IC50 [nM]
1 | CC(C)NCc1ccc(OCc2cccc(COc3ccc(CNC(C)C)cc3I)c2)c(I)c1 | 90
2 | O=c1ccc(-c2nc3cc(Cl)c(Cl)cc3n2Cc2ccc(Cl)cc2Cl)c[nH]1 | 1110
3 | N#Cc1ccc2[nH]cc(-c3cn4cc(SC5CCCC5)ccc4n3)c2c1 | 940
4 | CN(C)c1ccc(-c2ccc(C(=O)NC3CCN(Cc4ccc5c(c4)OCCO5)CC3)s2)cc1 | 1120
5 | C=CCO[C@@H]1O[C@H](COC(c2ccccc2)(c2ccccc2)c2ccccc2)[C@@H](OC(C)=O)[C@H](OC(C)=O)[C@H]1NC(C)=O | 660
6 | COc1ccc(Nc2nc(C)cc(NC3CCCC3)n2)cc1 | 870
7 | Cc1cccc2[nH]c(-c3cccc(-c4cccc(NC(=O)Cc5cnc[nH]5)c4)c3)nc12 | 670
8 | O=C(c1ccc(O)c(-c2cc(Cl)cc(Cl)c2)c1)N(CCO)CCO | 910
9 | CN(C)Cc1ccc(O)c(-c2ccc(C(C)(C)C)cc2)n1 | 1080
10 | COc1cc(CNCCCNc2nc3ncccc3[nH]2)c2[nH]cc(Br)c2c1 | 1160
11 | CN1CCCC(CN2CCN(Cc3ccc(-c4cccc(-c5nc6ccccc6[nH]5)c4)cc3)CC2)C1 (configuration not stated) | 130
12 | COc1ccc2ncc(Cl)c(CCN3CCC(NCc4ccc5c(n4)NC(=O)CO5)CC3)c2c1 | 470
13 | Cc1cc(NCCC(=O)Nc2ccccc2)nc(NCCc2cccnc2)n1 | 1240
14 | CCC1CCc2cc(N)cc(-c3nc4c(c(C)nn4CC)c(=O)[nH]3)c2O1 (configuration not stated) | 1120
15 | COc1c(C2CCN(CCCCNC(=O)C=Cc3cc4cc(Cl)ccc4o3)CC2)ccc2c1CCCC2 | 1310
16 | CC(Cc1ccc(NC(=O)c2ccc(NCCc3ccccc3)cc2)cc1)NCCc1cccc(Cl)c1 (configuration not stated) | 850
17 | COC(=O)c1ccc(CC(C)NCC(O)c2cccc(C(F)(F)F)c2)c(OC)c1 (configuration not stated) | 800
18 | O=S(=O)(NCCN1CCCC1)c1cccc(-c2ccc(CNCc3ccc(F)cc3)cc2)c1 | 230
19 | Cc1c(Cc2ccc(F)cc2)c(Cl)nc2nc(N)nc(N)c12 | 860
20 | Cn1c(Sc2ncnc3sccc23)nc2ccccc21 | 190
21 | CCCCCCNCCOc1ccc(-c2nc(-c3ccccc3)c(-c3ccccc3)[nH]2)cc1 | 670
22 | COc1cc(Nc2nccc(N3CCC(NC(=O)c4cc5ccccc5s4)C3)n2)cc(OC)c1OC (configuration not stated) | 790
23 | Cc1cccc2[nH]c(-c3ccc(-c4ccc(CN5CCN(c6ccc(C#N)cn6)CC5)cc4)s3)nc12 | 1130
24 | Cc1cccc2[nH]c(-c3ccc(-c4cccc(CN5CCCCC5)c4)s3)nc12 | 470
25 | CCCCCCn1c(Sc2ccc(C#N)c([N+](=O)[O-])c2)nnc1-c1cc(OC)cc(OC)c1 | 770

Row | SMILES | IC50 [nM]
26 | CS(=O)(=O)Cc1ccc(Nc2nccc(-c3c(-c4cccc(NC(=O)c5c(F)cccc5F)c4)nn4ccccc34)n2)cc1 | 150
27 | N=C(N)c1ccc(Oc2ccc(C(=N)N)cc2)cc1 | 320
28 | CCNc1cc(C(=O)N[C@@H](Cc2ccccc2)[C@H](O)CNC(C)Cc2cccc(Cl)c2)cc(N2CCCCS2(=O)=O)c1 (some centres not stated) | 500
29 | COc1cc(CC2c3cc(O)c(Cl)cc3CCN2C)c(OC)cc1C (configuration not stated) | 710
30 | Nc1nc(N)c2c(ccc3c2ccn3CCCC2CCCNC2)n1 (configuration not stated) | 900
31 | Cc1c(C(C)(C)C)ccc2nc(N)nc(N)c12 | 10
32 | O=C(/C=C/c1ccc(Cl)cc1Cl)N1CCC(CCN2CCC(c3c[nH]c4ccccc34)CC2)CC1 | 800
33 | Oc1ccccc1CN1CCN(C(c2ccccc2)c2ccccc2)CC1 | 760
34 | CC[C@H]1CN2CCc3cc(OC)c(OC)cc3[C@@H]2C[C@@H]1C[C@H]1NCCc2c1cc(OC)c(O)c2I | 220
35 | CC(C)CC(=O)Nc1cc(=O)[nH]c2nc(-c3ccccc3)nn12 | 350
36 | N[C@@H](Cc1cc(I)c(Oc2ccc(O)c(Cl)c2)c(I)c1)C(=O)O | 990
37 | CCc1ccccc1N=C1c2c(cccc2[N+](=O)[O-])C(=O)C1C(C)=O (configuration not stated) | 90
38 | CNC(=O)c1cnc(Nc2ccc(OCC(O)CN(C)C)cc2)nc1Nc1cccc(Br)c1 (configuration not stated) | 120
39 | O=C(/C=C/c1ccc(Cl)c(Cl)c1)NCCCCCN1CCC(NC(=O)Nc2ccc(Oc3ccccc3)cc2)C1 (configuration not stated) | 590
40 | O=C(c1cc2ccccc2o1)N1CCc2cc3nccc(N4CCN5CCC[C@H]5C4)c3cc21 | 810
41 | Cc1cc(NN=Cc2ccccc2F)c2cc(C(F)(F)F)ccc2n1 | 430
42 | Cc1cccc2[nH]c(-c3ccc(-c4ccc(NC(=O)NCc5cccc(F)c5)cc4)cc3)nc12 | 1300
43 | COc1cc(F)c2nccc([C@@H](O)CN3CC[C@@H](NC(=O)OCc4ccccc4)[C@@H](F)C3)c2c1 | 410
44 | Cc1cc(NC(=O)c2coc3cc(F)c(N4C[C@@H](C)N(C)[C@@H](C)C4)cc23)cnc1-c1ccc(C#N)cc1 | 700
45 | CN1CCN(Cc2ccc(OCc3cccc(COc4ccc(CN5CCN(C)CC5)cc4I)c3)c(I)c2)CC1 | 1010
46 | CN(C)c1nc2cc(-n3cnc4cc(-c5ccc(Cl)cc5)sc4c3=O)ccc2n1CCCN1CCCCC1 | 840
47 | O=C(NC1CCN(CCC(NC(=O)c2ccccc2)c2ccc(Cl)c(Cl)c2)CC1)c1ccc(Cl)cc1 (configuration not stated) | 1070
48 | C=CCOC(=O)N1CCC(CNCc2cccc(-c3ccc(-c4nc5c(C)cccc5[nH]4)s3)c2)C1 (configuration not stated) | 250
49 | COc1cccc(C(=O)N2CCOC(CCN3CCC(c4ccccc4)CC3)(c3ccc(Cl)c(Cl)c3)C2)c1 (configuration not stated) | 510
50 | O=C1Nc2cccc3c2C1(CCCCN1CCC(c2c(-c4ccc(F)cc4)[nH]c4ccccc24)CC1)CCC3 (configuration not stated) | 1190

Row | SMILES | IC50 [nM]
51 | Cc1c(C)n(C2CCCC2)c2ncnc(OC3CCN(CC(=O)NCC4CC4)CC3)c12 | 890
52 | COc1ccc2nccc([C@@H](O)CN3CCC(NC(=O)C(c4cc5ccccc5o4)N4CCN(Cc5ccccc5)CC4)CC3)c2c1 (some centres not stated) | 160
53 | Cc1ccc(O)cc1Nc1ccnc2cc(-c3ccccc3)ccc12 | 1070
54 | COC(=O)c1cccc(CNCc2cccc(-c3cccc(-c4nc5ccc(F)cc5[nH]4)c3)c2)c1 | 130
55 | NC(=O)C1CCN(Cc2ccc(-c3ccc(-c4nc5ccc(F)cc5[nH]4)cc3)cc2)CC1 | 810
56 | Cc1nnsc1C(=O)Nc1ccc(-c2cccc(-c3nc4ccc(F)cc4[nH]3)c2)cc1 | 770
57 | O=C(/C=C/c1ccc(Cl)c(Cl)c1)NCCCCCN1CCC(NC(=O)Nc2cccc(C(F)(F)F)c2)CC1 | 700
58 | O=C(CC1CCCC1)Nc1ccc2c(c1)CCC2 | 870
59 | COc1ccc(NC(=O)[C@H](Cc2ccccc2)Nc2cc(C)nc(NCCc3cccs3)n2)cc1 | 750
60 | O=C(/C=C/c1ccc(Cl)c(Cl)c1)NC1[C@@H]2CC[C@H]1CC(CN1CCC(c3c[nH]c4ccccc34)CC1)C2 (some centres not stated) | 200
61 | CC(=O)Nc1ccc(-c2nc3ccc(-c4nc5ccc(NC(C)=O)cc5[nH]4)cc3[nH]2)cc1 | 240
62 | O=C(/C=C/c1ccc(Cl)c(Cl)c1)NCCCCCN1CCC(NC(=S)Nc2ccc(Cl)cc2)CC1 | 440
63 | CC1(C)[C@H]2CC[C@@H](CNc3nc(NCC(=O)Nc4ccc5ccccc5c4)nc(N4CCC(N5CCCC5)CC4)n3)[C@@H]1C2 | 1190
64 | CC(C)(C)c1ccc(OCC(=O)NC2CCN(c3ccnc4cc(Cl)ccc34)C2)cc1 (configuration not stated) | 130
65 | NC(=O)C1CCN(Cc2cccc(-c3cccc(-c4nc5ccc(F)cc5[nH]4)c3)c2)CC1 | 850
66 | CCc1nc(N)nc(N)c1-c1ccc(C(C)(C)C)cc1 | 230
67 | COc1ccc(C2CCN(C#N)C2)cc1OC1CCCC1 (configuration not stated) | 230
68 | CCC[C@@H]([C@@H](CC1CCCCC1)C(=O)N[C@H](C(=O)Nc1nccs1)C(C)(C)SCCNC(=O)OCC)N(O)C=O | 80
69 | CCCCCCOc1ccc(C(=O)NCCC2CCN(CCCCCNC(=O)C=Cc3ccc(Cl)c(Cl)c3)CC2)cc1 | 660
70 | CN(CCN1CCC(c2c[nH]c3ccccc23)CC1)c1ccc(-c2nc3cc(Cl)c(Cl)cc3[nH]2)cc1 | 120
71 | Cc1ccc(NC(=O)c2ccc(N3CCN(c4ccncc4)CC3)cn2)cc1F | 1570
72 | CCNc1cc(C)nc(Nc2ccc(NS(=O)(=O)c3cc(OC)ccc3OC)cc2)n1 | 850
73 | COc1ccc2nccc(NN=CC=Cc3ccccc3)c2c1 | 740
74 | CCCCNC(=O)[C@H](Cc1ccccc1)NC(=O)c1ccc(O)c(-c2ccc(Cl)c(Cl)c2)c1 | 530
75 | Cc1cc(-c2ccc3c(c2)CCN(CCCOc2ccc4c(c2)CCN4C(=O)/C=C/c2ccccc2Cl)CC3)no1 | 1230

Row | SMILES | IC50 [nM]
76 | COc1ccc(NC(=O)Nc2ccc(Nc3nc(C)cc(N4CCCC4)n3)cc2)cc1 | 140
77 | CCCN1CCCN(Cc2cccc(NC(=O)c3ccc(-c4ccccc4)cc3)c2)CC1 | 1110
78 | O=C1c2cc(I)ccc2SC1c1ccccc1 (configuration not stated) | 820
79 | Cc1[nH]c2c(NCc3ccc(F)cc3)nccc2c1C | 1360
80 | Cc1ccc(Nc2nc(NN=Cc3cccc(O)c3)nc(Nc3ccc([N+](=O)[O-])cc3)n2)cc1C | 740
81 | ON=C1CCc2cc(-c3cc(-c4ccc(OC5CCNCC5)cc4)oc3-c3ccncc3)ccc21 | 160
82 | COc1ccc(NC(=O)NC2CCN(c3ccnc4ccccc34)C2)cc1 (configuration not stated) | 870
83 | Oc1ccc(-c2cncc(NCc3ccc(F)c(F)c3)c2)cc1 | 770
84 | COc1ccc(CNCc2ccccc2)cc1-c1ccc(S(=O)(=O)NCCN2CCCC2)c(F)c1 | 1140
85 | CC(C)CNCc1ccc(-c2cccc(CN(CCCN3CCN(C)CC3)C(=O)/C=C/c3ccccc3)c2)cc1 | 870
86 | COc1ccc(-c2ccc(NC(=O)c3ccc(F)cc3)cc2)cc1CN1CCCN(C)CC1 | 660
87 | Cc1ccc2c(=O)c3cc(C)ccc3[nH]c2c1 | 420
88 | COc1cc2ncnc(Nc3ccc4nc(Cc5ccccc5)[nH]c4c3)c2cc1OC | 1480
89 | Cc1ccc(NC(=O)c2cccc(CN3CCCN(CC4CCCCC4)CC3)c2)cc1F | 600
90 | O=C(C=Cc1ccc(Cl)c(Cl)c1)NCCCCCN1CCC(CCNS(=O)(=O)c2ccc(F)cc2)CC1 | 1090
91 | FC(F)(F)c1cccc(CNCCCCCNCc2ccc(Cl)cc2)c1 | 1030
92 | O=C(/C=C/c1ccc(Cl)c(Cl)c1)N1CCC(CN2CCC(c3nc4ccccc4n3CCCO)CC2)CC1 | 840
93 | COc1nc(-n2ccc(=N)cc2)nc2ccccc12 | 1060
94 | CC(=O)c1c[nH]c2ccc(/C=C/C(=O)NC3CCC(CCN4CCc5ccc(C#N)cc5CC4)CC3)cc12 (configuration not stated) | 500
95 | Cc1onc(-c2c(F)cccc2Cl)c1C(=O)Nc1ccccc1I | 950
96 | O=C(Nc1ccc(-c2cccc(-c3nc4ccc(C(F)(F)F)cc4[nH]3)c2)cc1)c1ccoc1 | 830
97 | CS(=O)(=O)CCNCc1nc(-c2ccc3ncnc(Nc4ccc(OCc5cccc(F)c5)c(Cl)c4)c3c2)cs1 | 770
